Key:
BTK = molecular target: T1, BTK (Homo sapiens, UniProt Q06187); test: Cell Degradation: BTK degradation in TMD-8 cells, HTRF assay; type: cell-based; settings: 6 h treatment, IC50 (DC50) of BTK degradation
T1 construct: High control=Cell group with added DMSO and without compound, indicating microplate readings without BTK degradation; endogenous in cells; host or cells: TMD-8 cells
Procedure: TMD-8 cells are treated with compounds in 0.2% DMSO, dilution is done according to the following protocol: (1) make 500× stock solution in DMSO from 1 mM by 6-fold dilution, total 8 doses were included; (2) make 2× solution in cell culture medium by transferring 0.5 μl 500× stock solution into 125 μl medium; (3) 15 μl of 2× solution is added to cells and incubate for 6 h.
After 6 h treatment, add […] 4×lysis buffer to each well; seal the plate and incubate 30 min at room temperature on a plate shaker; Once the cells are lysed, 16 μL of cell lysate are transferred to a PE 384-well HTRF detection plate; 4 μL of pre-mixed HTRF antibodies are added to each well; Cover the plate with a plate sealer, spin 1000 rpm for 1 min, Incubate overnight at room temperature; Read on BMG PheraStar with HTRF protocol (337 nm-665 nm-620 nm).
The inhibition (degradation) percentage of the compound was calculated by the following equation: Inhibition percentage of Compound=100-100× (Signal-low control)/(High control-low control), wherein signal=each test compound group
Dmax is the maximum percentage of inhibition (degradation).
The IC50 (DC50) value of a compound can be obtained by fitting the following equation
Y=Bottom+(TOP-Bottom)/(1+((IC50/X)^hillslope))
(§1) Wherein, X and Y are known values, and IC50, Hillslope, Top and Bottom are the parameters obtained by fitting with software. Y is the inhibition percentage (calculated from the equation), X is the concentration of the compound; IC50 is the concentration of the compound when the 50% inhibition is reached. The smaller the IC50 value is, the stronger the inhibitory ability of the compound is. Vice versa, the higher the IC50 value is, the weaker the ability the inhibitory ability of the compound is; Hillslope represents the slope of the fitted curve, generally around 1 *; Bottom represents the minimum value of the curve obtained by data fitting, which is generally 0%±20%; Top represents the maximum value of the curve obtained by data fitting, which is generally 100%±20%. The experimental data were fitted by calculating and analyzing with Dotmatics data analysis software.

HEK-293 cells = test: HEK-293 Cytotoxicity Assay (CellTiter-Glo); type: cell-based; settings: Homo sapiens, HEK293, 72 h incubation, CellTiter-Glo luminescence
Procedure: HEK-293 Cytotoxicity Assay
HEK-293 cells are treated with compounds diluted in 0.2% DMSO, dilution is done according to the following protocol: (1) make 500× stock solution in DMSO from 5 mM by 4-fold dilution, total 8 doses were included; (2) make 2× solution in cell culture medium by transferring 0.5 ul 500× stock solution into 125 ul medium; (3) 50 ul of 2× solution is added to cells and incubate for 72 h.
Add 25 μl of the CellTiter-Glo®Reagent [I (Promega)—Cat No. G7572] to each well in the 96-well plate. Mix contents for 2 minutes on an orbital shaker to induce cell lysis. Allow the plate to incubate at room temperature for 10 minutes to stabilize luminescent signal. Record luminescence on BMG PheraStar with luminescence protocol.
as §1, with “The IC50 value of a compound can be obtained by fitting the following equation. Y=Bottom+(TOP−Bottom)/(1+((IC50/X)^hillslope)) Wherein,” for “Wherein,”, “1*;” for “1 *;”

T1 sequence (Q06187 whole entry): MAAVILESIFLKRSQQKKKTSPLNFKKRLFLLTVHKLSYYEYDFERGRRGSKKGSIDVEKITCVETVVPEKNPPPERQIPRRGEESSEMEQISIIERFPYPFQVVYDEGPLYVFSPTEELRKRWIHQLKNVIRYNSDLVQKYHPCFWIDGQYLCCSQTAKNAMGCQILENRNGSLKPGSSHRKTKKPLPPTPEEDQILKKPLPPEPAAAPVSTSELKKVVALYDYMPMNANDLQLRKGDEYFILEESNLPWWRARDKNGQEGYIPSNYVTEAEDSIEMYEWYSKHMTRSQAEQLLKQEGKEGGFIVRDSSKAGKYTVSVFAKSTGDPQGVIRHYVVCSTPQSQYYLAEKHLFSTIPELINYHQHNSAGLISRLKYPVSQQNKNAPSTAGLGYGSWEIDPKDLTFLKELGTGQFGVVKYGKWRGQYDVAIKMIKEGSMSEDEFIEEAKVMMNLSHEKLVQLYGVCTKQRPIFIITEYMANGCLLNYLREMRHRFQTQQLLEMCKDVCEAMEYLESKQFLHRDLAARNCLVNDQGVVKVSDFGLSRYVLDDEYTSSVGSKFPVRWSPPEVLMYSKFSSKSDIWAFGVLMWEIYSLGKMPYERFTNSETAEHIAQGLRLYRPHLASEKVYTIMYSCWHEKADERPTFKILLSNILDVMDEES

Structure (SMILES) | DC50 (BTK) [nM] | IC50 (HEK-293 cells) [nM]
Cc1cc(-c2ncnc3[nH]c(-c4ccc(N5CCN(CC6CCN(c7ccc(N8CCC(=O)NC8=O)cc7)CC6)CC5)cc4)cc23)ccc1CNC(=O)c1csc(C(C)(C)C)n1 [Example 46, 2-(tert-butyl)-N-(4-(6-(4-(4-((1-(4-(2,4-dioxotetrahydropyrimidin-1(2H)-yl)phenyl)piperidin-4-yl)methyl)piperazin-1-yl)phenyl)-7H-pyrrolo[2,3-d]pyrimidin-4-yl)-2-methylbenzyl)thiazole-4-carboxamide] | 5.3 | > 10000
Cc1cc(-c2ncnc3[nH]c(-c4c(C)nn(C5CCN(C(=O)CNCC6CCN(c7ccc(N8CCC(=O)NC8=O)cc7)CC6)CC5)c4C)cc23)ccc1[C@@H](C)NC(=O)c1nc(C(C)(C)C)no1 [Example 161, (R)-3-(tert-butyl)-N-(1-(4-(6-(1-(1-(((1-(4-(2,4-dioxotetrahydropyrimidin-1(2H)-yl)phenyl)piperidin-4-yl)methyl)glycyl)piperidin-4-yl)-3,5-dimethyl-1H-pyrazol-4-yl)-7H-pyrrolo[2,3-d]pyrimidin-4-yl)-2-methylphenyl)ethyl)-1,2,4-oxadiazole-5-carboxamide] | 0.92 | 3550
Cc1cc(-c2ncnc3[nH]c(-c4ccc(N5CCN(CC6CCN(c7ccc(N8CCC(=O)NC8=O)cc7)CC6)CC5)nc4)cc23)ccc1[C@@H](C)NC(=O)c1noc(C(C)(C)C)n1 [Example 104, (R)-5-(tert-butyl)-N-(1-(4-(6-(6-(4-((1-(4-(2,4-dioxotetrahydropyrimidin-1(2H)-yl)phenyl)piperidin-4-yl)methyl)piperazin-1-yl)pyridin-3-yl)-7H-pyrrolo[2,3-d]pyrimidin-4-yl)-2-methylphenyl)ethyl)-1,2,4-oxadiazole-3-carboxamide] | 0.6 | > 10000
Cc1cc(-c2ncnc3[nH]c(-c4ccc(C5CCN(CCC6CCN(c7ccc(N8CCC(=O)NC8=O)c(F)c7)CC6)CC5)cc4)cc23)ccc1CNC(=O)c1nc(C(C)(C)C)no1 [Example 15, 3-(tert-butyl)-N-(4-(6-(4-(1-(2-(1-(4-(2,4-dioxotetrahydropyrimidin-1(2H)-yl)-3-fluorophenyl)piperidin-4-yl)ethyl)piperidin-4-yl)phenyl)-7H-pyrrolo[2,3-d]pyrimidin-4-yl)-2-methylbenzyl)-1,2,4-oxadiazole-5-carboxamide] | 1 | 1230
Cc1c(-c2ncnc3[nH]c(-c4ccc(N5CCN(CC6CCN(c7ccc(N8CCC(=O)NC8=O)cc7)CC6)CC5)cc4)cc23)cccc1N1CCn2c(cc3c2CC(C)(C)C3)C1=O [Example 11, 1-(4-(4-((4-(4-(4-(3-(7,7-dimethyl-1-oxo-1,3,4,6,7,8-hexahydro-2H-cyclopenta[4,5]pyrrolo[1,2-a]pyrazin-2-yl)-2-methylphenyl)-7H-pyrrolo[2,3-d]pyrimidin-6-yl)phenyl)piperazin-1-yl)methyl)piperidin-1-yl)phenyl)dihydropyrimidine-2,4(1H,3H)-dione] | 4.7 | > 10000
CC(C)(C)c1noc(C(=O)N[C@@H]2CCc3cc(-c4ncnc5[nH]c(-c6ccc(N7CCN(CC8CCN(c9ccc(N%10CCC(=O)NC%10=O)cc9)CC8)CC7)nc6)cc45)ccc32)n1 [Example 151, (R)-3-(tert-butyl)-N-(5-(6-(6-(4-((1-(4-(2,4-dioxotetrahydropyrimidin-1(2H)-yl)phenyl)piperidin-4-yl)methyl)piperazin-1-yl)pyridin-3-yl)-7H-pyrrolo[2,3-d]pyrimidin-4-yl)-2,3-dihydro-1H-inden-1-yl)-1,2,4-oxadiazole-5-carboxamide] | 3.24 | > 10000
Cc1cc(-c2ncnc3[nH]c(-c4ccc(N5CCN(CC6CCN(c7ccc(N8CCC(=O)NC8=O)c(C)c7)CC6)CC5)cn4)cc23)ccc1[C@@H](C)NC(=O)c1noc(C(C)(C)C)n1 [Example 129, (R)-5-(tert-butyl)-N-(1-(4-(6-(5-(4-((1-(4-(2,4-dioxotetrahydropyrimidin-1(2H)-yl)-3-methylphenyl)piperidin-4-yl)methyl)piperazin-1-yl)pyridin-2-yl)-7H-pyrrolo[2,3-d]pyrimidin-4-yl)-2-methylphenyl)ethyl)-1,2,4-oxadiazole-3-carboxamide] | 0.33 | > 10000
CC(C)(C)c1noc(C(=O)N[C@@H]2CCc3cc(-c4ncnc5[nH]c(-c6ccc(N7CCN(CC8CCN(c9ccc(N%10CCC(=O)NC%10=O)cc9)CC8)CC7)cn6)cc45)ccc32)n1 [Example 150, (R)-3-(tert-butyl)-N-(5-(6-(5-(4-((1-(4-(2,4-dioxotetrahydropyrimidin-1(2H)-yl)phenyl)piperidin-4-yl)methyl)piperazin-1-yl)pyridin-2-yl)-7H-pyrrolo[2,3-d]pyrimidin-4-yl)-2,3-dihydro-1H-inden-1-yl)-1,2,4-oxadiazole-5-carboxamide] | 1.64 | > 10000
Cc1cc(-c2ncnc3[nH]c(-c4ccc(C5CCN(CCCC6CN(c7ccc8c(c7)C(=O)N(C7CCC(=O)NC7=O)C8=O)C6)CC5)cc4)cc23)ccc1CNC(=O)c1nc(C(C)(C)C)no1 (stereo not drawn) [Example 6, 3-(tert-butyl)-N-(4-(6-(4-(1-(3-(1-(2-(2,6-dioxopiperidin-3-yl)-1,3-dioxoisoindolin-5-yl)azetidin-3-yl)propyl)piperidin-4-yl)phenyl)-7H-pyrrolo[2,3-d]pyrimidin-4-yl)-2-methylbenzyl)-1,2,4-oxadiazole-5-carboxamide] | 1.7 | > 10000
COc1cc(-c2nc3c(-c4ccc([C@@H](C)NC(=O)c5nc(C(C)(C)C)no5)c(C)c4)ncnc3[nH]2)ccc1N1CCN(CC2CCN(c3ccc(N4CCC(=O)NC4=O)c(C)c3)CC2)CC1 [Example 113, (R)-3-(tert-butyl)-N-(1-(4-(8-(4-(4-((1-(4-(2,4-dioxotetrahydropyrimidin-1(2H)-yl)-3-methylphenyl)piperidin-4-yl)methyl)piperazin-1-yl)-3-methoxyphenyl)-9H-purin-6-yl)-2-methylphenyl)ethyl)-1,2,4-oxadiazole-5-carboxamide] | 0.97 | > 10000
Cc1cc(-c2ncnc3[nH]c(-c4ccc(N5CCN(CC6CCN(c7ccc(N8CCC(=O)NC8=O)cc7)CC6)CC5)cn4)cc23)ccc1[C@@H](C)NC(=O)c1noc(C(C)(C)C)n1 [Example 133, (R)-5-(tert-butyl)-N-(1-(4-(6-(5-(4-((1-(4-(2,4-dioxotetrahydropyrimidin-1(2H)-yl)phenyl)piperidin-4-yl)methyl)piperazin-1-yl)pyridin-2-yl)-7H-pyrrolo[2,3-d]pyrimidin-4-yl)-2-methylphenyl)ethyl)-1,2,4-oxadiazole-3-carboxamide] | 0.8 | > 10000
Cc1cc(N2CCN(CC3CCN(c4ccc(N5CCC(=O)NC5=O)c(C)c4)CC3)CC2)ccc1-c1nc2c(-c3ccc([C@@H](C)NC(=O)c4nc(C(C)(C)C)no4)c(C)c3)ncnc2[nH]1 [Example 114, (R)-3-(tert-butyl)-N-(1-(4-(8-(4-(4-((1-(4-(2,4-dioxotetrahydropyrimidin-1(2H)-yl)-3-methylphenyl)piperidin-4-yl)methyl)piperazin-1-yl)-2-methylphenyl)-9H-purin-6-yl)-2-methylphenyl)ethyl)-1,2,4-oxadiazole-5-carboxamide] | 1.68 | > 10000
